Laboratory results reported in US7309713B2, “Use of the non-opiate analgesic drug flupirtine for the treatment of overactive bladder and associated diseases including urge incontinence, urinary flow problems as a result of prostate hyperplasia and irritable bowel syndrome” (priority 2005, dated 2007).
Several values for one entry are separate records, joined by “and”; a condition that tells them apart may be missing. Equal values may be shown once. Entries after “also recorded” stand apart in the source; their conditions may differ. Where a name gives a salt, the structure may show the parent alone.

Key:
[1] = system: volume-induced rhythmic urinary bladder contractions; assay: volume-induced rhythmic urinary bladder contractions in urethane anaesthetised rats (rat model of overactive bladder); type: in vivo, Sprague Dawley rat; conditions: for presence/absence of bladder contractions (block grade), individual animal: 55 min period, Table 3; for decrease in frequency, individual animal / duration of block, individual animal / increase in frequency, individual animal / number of episodes of block per animal: individual animals; for mean pressure peaks of the amplitude diminished/reduced by: reduction
Source text: In the search for new drugs compounds are of interest which affect the central nervous system circuits involved in micturation as well as the peripheral nerves resulting in a decrease in the frequency of the voiding reflex without any effect on bladder contractility. […] The method utilises spontaneous, volume-induced contractions of the urinary bladder in anaesthetised rats and was developed and first described by Dray (J. Pharmacol. Meth. 13:157-165, 1985) to assess the central activity of substances with opioid properties on bladder function. As this model clearly mimics the interplay between smooth muscle function and neuronal control thereof, this model can be also used to predict drug effects in a different disease, i.e. irritable bowl syndrome (IBS).
Aim of the study: To characterise the effects of the analgesic flupirtine maleate on the bladder function we used the model volume-induced contractions of urinary bladder in urethane anaesthetised rats. […] The compounds at the dose range 0.1-10 mg/kg were intraduodenally administered to anaesthetised rats. The intraduodenal route was chosen to mimic the oral route and to avoid the use of solvents necessary for intravenous administration.
• Species: Sprague Dawley rat • Sex: Female • Body weight: 200-270 g • Breeder: Charles River, Sulzfeld • Food/Tap water: pellets, ssniff M/R15, ad libitum, Spezialdiäten GmbH, Soest/Wesffalen, FRG • Conditions in animal housing: Rats were kept conventionally in groups of 6 in macrolon cages No. 4. • Room temperature: 20-24° C. • Relative humidity: 40-70%, deviations from the maximum range caused during cleaning procedure are possible • Light/Dark rhythm: 12/12 h light/dark cycle, light on at 6:00 a.m.
The food was withdrawn 16 hours before intraduodenal drug administration. Tap water was available ad libitum.
Flupirtine maleate or oxybutynin hydrochloride were suspended in hydroxyethylcellulose (0.5%) in demineralised water. The substances were ground in a mortar with pistil. The suspensions were placed on a magnetic stirrer before and during dosing procedures. The substances were freshly prepared in the morning and applied intraduodenally in a volume of 0.4 ml/100 g body weight. Control rats received hydroxyethylcellulose (0.5%) i.d.
The filling material, consisting of small globules, was ground in a mortar with pistil. Thereafter the grounded material was suspended in hydroxyethylcellulose (0.5%) in demineralised water. The suspensions were placed on a magnetic stirrer before and during dosing procedures for 10 minutes. The suspensions were freshly prepared in the morning and applied intraduodenally in a volume of 0.4 ml/100 g body weight to rats. Control rats received the same amount of hydroxyethylcellulose (0.5%) i.d.
The continuous registration lasted 1 hr. […] The frequency was evaluated for 10 min before (baseline) and within the observation period in intervals of 10 minutes starting 5, 20, 35 and 50 min after drug administration. For intraduodenal dosing, drugs were administered via a duodenal polyethylene tube to animals in aqueous suspension of 0.5% hydroxyethylcellulose.

[2] = system: mean arterial blood pressure; assay: mean arterial blood pressure recorded in the urethane anaesthetised rats of the bladder model
Protocol: The body temperature was maintained at 37° C. by means of an heated small operating table and 2 red light heating lamps. The left carotid artery was prepared and a catheter for continuous blood pressure measurement was inserted and connected to a Statham pressure transducer (Model P23 Db) and connected with a computer-controlled physiological recorder (PMS PR 800, Mumed Systems Ltd London, GB).
For intraduodenal drug administration a polyethylene catheter was inserted into the upper part of the duodenum, about 5 cm downwards from the pylorus and fixed with a purse-string suture. Bilateral ureters were ligated proximally to the bladder to prevent the bladder filling with urine. Urine of the kidneys was drained onto cotton swabs within the abdomen. The urinary bladder was catheterised via the urethra by use of PE 50 polyethylene tubing filled with physiological saline and secured in place by a ligature at the lower part of the urethra. Using a “T”-connector, the bladder catheter was connected to a Statham pressure transducer (Model P23 Db) connected with the physiological recorder (PMS PR 800) to measure intravesicular pressure and to a Infusion pump (TSE, FRG). Continuous recordings of intravesicular pressure and arterial blood pressure were captured onto a 4 channel Linearcorder WR3310 (Western Graphtec, Inc., USA). The experiment was started infusing (0.05 ml/min) the bladder with warmed saline (37-38° C.) to evoke rhythmic bladder contractions by means an infusion pump up to a maximal volume of 1.0 ml. The infusion is stopped after reaching the final volume or with the start of rhythmic bladder contractions.

[3] = 0.1 mg/kg i.d. single dose, group mean
[4] = 1.0 mg/kg i.d. single dose, group mean
[5] = 10 mg/kg i.d. single dose, group mean

CCN(CC)CC#CCOC(=O)C(O)(c1ccccc1)C1CCCCC1 (stereo not drawn) [oxybutynin hydrochloride, (α-Phenylcyclohexaneglycolicacid 4-[diethylamino]-2-butynyl ester hydrochloride]
block X/n (animals with blockade of bladder contraction) ([1]; 0.1 mg/kg i.d. single dose): 3/3
block, blockade duration (group, min-max) ([1]; 0.1 mg/kg i.d. single dose): 4 to 6 min
amplitude Post (30-60 min), mean [1, 3]: 32.0-32.0 mm Hg
amplitude, change in percent from base value (Δ %) [1, 3]: −13%
frequency Post (20-60 min), mean [1, 3]: 6.3-7.3 n/10 min
frequency, change in percent from base value (Δ %) [1, 3]: −12%
presence/absence of bladder contractions (block grade), individual animal ([1]; 0.1 mg/kg i.d.): (+) (+ or (+) = contractions abolished during 5-10 min time period)
decrease in frequency, individual animal ([1]; 0.1 mg/kg i.d., hydrochloride): decrease in frequency by 25%,; also recorded: frequency by 50%
duration of block, individual animal ([1]; 0.1 mg/kg i.d., hydrochloride): ≤ 6 min and 5 min and max. 4 min, initial increase,
increase in frequency, individual animal ([1]; 0.1 mg/kg i.d., hydrochloride): frequency by 17%; also recorded: by 9% during 5-15th min
number of episodes of block per animal ([1]; 0.1 mg/kg i.d., hydrochloride): 4 (2×) and 1
number of episodes of block per animal ([1]; 0.1 mg/kg i.d., listed as Oxybutynin hydrochloride, hydrochloride): 1-4
mean pressure peaks of the amplitude diminished/reduced by ([1]; 0.1 mg/kg i.d.): 13%
block X/n (animals with blockade of bladder contraction) ([1]; 1.0 mg/kg i.d. single dose): 3/3
amplitude, change in percent from base value (Δ %) [1, 4]: −20%
frequency, change in percent from base value (Δ %) [1, 4]: −68%
amplitude Post (30-60 min), mean ([1]; 1.0 mg/kg i.d. single dose, group mean, hydrochloride): 3/3 bl
presence/absence of bladder contractions (block grade), individual animal ([1]; 1.0 mg/kg i.d., hydrochloride): +++ from 3 to 11th and 30 to (+++ = contractions abolished during 30-60 min time period); also recorded: ++ (++ = contractions abolished during 10-30 min time period)
mean voiding frequency decreased by ([1]; 1 mg/kg i.d., decrease): 68%
decrease in frequency, individual animal ([1]; 1.0 mg/kg i.d., hydrochloride): contractions by 100%; also recorded: frequency by 62%; also recorded: by 80%
duration of block, individual animal ([1]; 1.0 mg/kg i.d., hydrochloride): 9 min and 30 min and 7 to 16 min and 4 to 11 min
number of episodes of block per animal ([1]; 1.0 mg/kg i.d., hydrochloride): 3-6 and 3 and 5
mean pressure peaks of the amplitude diminished/reduced by ([1]; 1 mg/kg i.d.): 20%
block X/n (animals with blockade of bladder contraction) ([1]; 10 mg/kg i.d. single dose): 3/3
amplitude, change in percent from base value (Δ %) [1, 5]: −38%
frequency, change in percent from base value (Δ %) [1, 5]: +22%
block, blockade duration (group, min-max) ([1]; 10 mg/kg i.d. single dose, hydrochloride): 5 to 30 min
block, blockade duration (group, min-max) ([1]; 10 mg/kg i.d. single dose, listed as Oxybutynin hydrochloride, hydrochloride): 4 to 30 min
presence/absence of bladder contractions (block grade), individual animal ([1]; 10 mg/kg i.d., hydrochloride): + (+ or (+) = contractions abolished during 5-10 min time period); also recorded: ++ (++ = contractions abolished during 10-30 min time period)
mean frequency averaged over all animals increased by ([1]; 10 mg/kg i.d., increase): 22%
duration of block, individual animal ([1]; 10 mg/kg i.d., hydrochloride): 4 min (2×) and 30 min
increase in frequency, individual animal ([1]; 10 mg/kg i.d., hydrochloride): increase in frequency by 14%; also recorded: in frequency by 28%; also recorded: increase in frequency by 22%
number of episodes of block per animal ([1]; 10 mg/kg i.d., hydrochloride): 2 and 1 (2×)
mean pressure peaks of the amplitude diminished/reduced by ([1]; 10 mg/kg i.d.): 38%
reduction in the amplitude, of the basal value ([1]; dose range 0.1-10 mg/kg i.d., generally): no more than 60%
mean BP, change in percent from base value (Δ %) [2, 3]: −5%
mean BP Post (30-60 min), mean [2, 4]: 80.0-85.0 mm Hg
mean BP, change in percent from base value (Δ %) [2, 4]: −15%
mean BP, change in percent from base value (Δ %) [2, 5]: −24%
mean arterial blood pressure decreased by ([2]; 10 mg/kg i.d., decrease): 24%
